Assay results as given in PMC8316002, “Inhibition of Escherichia coli Lipoprotein Diacylglyceryl Transferase Is Insensitive to Resistance Caused by Deletion of Braun’s Lipoprotein” (Journal of Bacteriology, 2021).
In brackets after ≈: the same amount, converted by molar mass.

Key:
CFT073 Δlgt [1] = assay: MIC assay, CFT073 Δlgt, Lgt 4% Ara; type: cell-based, E. coli; details: Escherichia coli
Method: (§1) Unless stated otherwise, E. coli cells were grown in Luria-Bertani (LB) medium (0.5% yeast extract, 1% tryptone, 0.5% NaCl) at 37°C. Where indicated, kanamycin (Kan) was added to culture media at a 50-μg/ml final concentration. MIC assays were performed based on Clinical and Laboratory Standards Institute (CLSI) guidelines. For in vitro growth curves, overnight cultures of WT CFT073, CFT073 Δlgt, and CFT073 Δlgt complemented with lgt from E. coli (lgt^Ec) or P. aeruginosa (lgt^Pa) were grown to mid-exponential phase (optical density at 600 nm [OD600] of 0.6) and then diluted to an OD600 of 0.1 to initiate growth curves. At various times, culture aliquots were diluted and plated in dilutions on LB+Kan agar, and CFU were enumerated in duplicates. Growth of MG1655 inducible deletion strains was measured by culturing in the presence of 2-fold dilutions of arabinose (starting arabinose concentrations for CFT073 and MG1655 inducible deletion strains were 4% and 0.8%, respectively). While […] was sufficient for WT growth of MG1655 Δlgt, 4% arabinose was used for CFT073 Δlgt based on comparing its growth to that of WT CFT073 as measured by CFU. OD600 growth measurements were performed using an EnVision 2101 multilabel reader plate reader (PerkinElmer) linked with Echo liquid handler (Labcyte). For time-kill experiments, bacteria were harvested in mid-exponential phase and treated with 12.5 μM G2824, 3.2 μM globomycin, and 1.6 μM vancomycin. CFU were enumerated at various times posttreatment. Bacterial culture medium containing 2% arabinose was used to induce lpp or lppΔK expression from pBad24 plasmids. Bacterial viability at different time points during the treatment was measured by enumerating CFU. Serum killing assays were carried out as previously described ([17]).

WT CFT073 = assay: MIC assay, WT CFT073 (Table 1); type: cell-based, E. coli; details: average of two independent experiments, each in duplicates, CLSI
Method: as §1

CFT073 Δlgt [2] = assay: MIC assay, CFT073 Δlgt, Lgt 0.25% Ara; type: cell-based, E. coli
Method: as §1

BW25113 cells, lgt gRNA = assay: CRISPRi knockdown sensitization, lgt gRNA; type: cell-based, E. coli; details: 2 μM G2824, 0.05 μM globomycin or 0.016 μM ciprofloxacin; OD600 relative to untreated, versus scr or folA gRNA
Excerpt: (§2) The two-plasmid bacterial CRISPRi system pdCas9-bacteria_GNE and PGNRNA-bacteria_GNE are based on the AddGene plasmids 44249 and 44251 ([73]), respectively. The plasmid was synthesized in smaller DNA fragments (500 bp to 3 kb) (IDT gBlocks) and assembled by Gibson assembly (NEB) according to the manufacturer’s protocols. Plasmids were confirmed by sequencing (ELIM Bio). gRNAs were designed to target the 5′ end of the gene on the nontemplate strand using Benchling CRISPR software ([74]). gRNAs were cloned into PGNRNA-bacteria using Gibson assembly (NEB) according to the manufacturer’s protocols and sequence confirmed (ELIM Bio).
(§3) Bacterial cultures were grown overnight on LB agar supplemented with carbenicillin (50 μg/ml) and chloramphenicol (12.5 μg/ml) to maintain both plasmids, pdCas9-bacteria and PGNRNA-bacteria with each gRNA as appropriate. Cells were scraped from the plate into fresh medium. The OD600 was measured, and the culture was subsequently diluted to an OD600 0.001 in the presence or absence of G2824, globomycin, or ciprofloxacin. Two hundred microliters was transferred to a 96-well plate (Corning) and monitored for growth by measuring the OD600 (EnVision multimode plate reader; PerkinElmer). All treatments were performed in triplicates. The specificity of CRISPRi downregulation was measured using reverse transcriptase quantitative PCR (RT-qPCR).

BW25113 cells, lspA gRNA = assay: CRISPRi knockdown sensitization, lspA gRNA; type: cell-based, E. coli; details: 2 μM G2824, 0.05 μM globomycin or 0.016 μM ciprofloxacin; OD600 relative to untreated, versus scr or folA gRNA
Excerpt: as §2, §3

Lgt = assay: Lgt-dependent diacylglyceryl modification of peptide substrate (MS, SDS-PAGE); type: biochemical, E. coli

Row | Molecule | MIC (CFT073 Δlgt [1]) [µM] | MIC (WT CFT073; Escherichia coli) [µM] | MIC (CFT073 Δlgt [2]; Escherichia coli) [µM] | further results
1 | CC1(C)S[C@@H]2[C@H](NC(=O)Cc3ccccc3)C(=O)N2[C@H]1C(=O)O [Penicillin G] | > 50 | > 50 | 0.8 (≈ 0.268 µg/mL) | 
2 | Cc1c(N)nc([C@H](CC(N)=O)NC[C@H](N)C(N)=O)nc1C(=O)N[C@H](C(=O)N[C@H](C)[C@@H](O)[C@H](C)C(=O)N[C@H](C(=O)NCCC1=N[C@@H](c2nc(C(=O)NCCCCN=C(N)N)cs2)CS1)[C@@H](C)O)[C@@H](O[C@@H]1O[C@@H](CO)[C@@H](O)[C@H](O)[C@@H]1O[C@H]1O[C@H](CO)[C@@H](O)[C@H](OC(N)=O)[C@@H]1O)c1cnc[nH]1 [Zeocin] |  |  |  | MIC (WT CFT073): 12.5 µM (≈ 17.8 µg/mL); MIC (CFT073 Δlgt [2]; CFT073 Δlgt, Lgt 0.25% Ara (low Lgt level), average of two independent experiments, each in duplicates, CLSI): 0.8 µM (≈ 1.14 µg/mL)
3 | O=C(O)c1cn(C2CC2)c2cc(N3CCNCC3)c(F)cc2c1=O [ciprofloxacin] |  |  |  | sensitization by decreased lgt expression (BW25113 cells, lgt gRNA): did not lead to increased sensitivity; sensitization by decreased lspA expression (BW25113 cells, lspA gRNA): did not lead to increased sensitivity
4 | Cc1onc(-c2ccccc2)c1C(=O)N[C@@H]1C(=O)N2[C@@H]1SC(C)(C)[C@@H]2C(=O)O [Oxacillin] | > 100 | > 100 | 12.5 (≈ 5.02 µg/mL) | 
5 | CCn1cc(C(=O)O)c(=O)c2cc(F)c(N3CCNCC3)cc21 [Norfloxacin] | 0.6 (≈ 0.192 µg/mL) | 0.4 (≈ 0.128 µg/mL) | 0.2 (≈ 0.0639 µg/mL) | 
6 | CO[C@H]1/C=C/O[C@@]2(C)Oc3c(C)c(O)c4c(O)c(cc(O)c4c3C2=O)NC(=O)/C(C)=C\C=C\[C@H](C)[C@H](O)[C@@H](C)[C@@H](O)[C@@H](C)[C@H](OC(C)=O)[C@@H]1C [Rifamycin] |  | 6.3 (≈ 4.4 µg/mL) | 0.8 (≈ 0.558 µg/mL) | 
7 | MQLNKVLKGLMIALPVMAIAACSSNKN [Pal-IAAC, peptide substrate derived from the Pal lipoprotein] |  |  |  | diacylglyceryl modification by SDS-PAGE (Lgt; SDS-PAGE, Coomassie blue): is Lgt dependent; diacylglyceryl modification, mass addition (Lgt; mass spectrometry, Lgt dependent): 552 Da
